# Experimental data published in patent publication US12044684B2, “Methods for diagnosing an autistic spectrum disorder” (QATAR UNIVERSITY, priority 2018, dated 2024).
# Assay: Renal clearance (CL) of free adducts and unmodified amino acids deduced from plasma and spot urine
# Type: in vivo, human
# Conditions: children with ASD compared to healthy control; P<0.001
# Description: In one embodiment, renal clearance amino acid adducts is deduced from the concentration of an amino acid adduct detected in a plasma and urine sample according to the following equation: CL (μl/mg creatinine or ml/mg creatinine)=[Analyte]Urine (nmol/mg creatinine)/[Analyte]Plasma (pmol/ml or nmol/ml).
# Oxidation, nitration and glycation adduct residues are normalised to their amino acid residue precursors and given as mmol/mol amino acid modified; and related free adducts are given in nM. […] Renal clearance (CL) of glycation, oxidation and nitration free adducts and unmodified amino acids was deduced from plasma and spot urine collections: CL (μl/mg creatinine or ml/mg creatinine)=[Analyte]Urine (nmol/mg creatinine)/[Analyte]Plasma (pmol/ml or nmol/ml).
row,decrease in renal clearance (CL) [%],SMILES
1,32,"N=C(N)NCCC[C@H](N)C(=O)O [arg, arginine]"

# Same assay, conditions: children with ASD with respect to healthy controls
row,SMILES,"renal clearance, change"
1,"N=C(N)NCCC[C@H](N)C(=O)O [arg, arginine]",decreased
2,"CC(C)C[C@H](N)C(=O)O [leu, leucine]",decreased
3,"N[C@@H](Cc1c[nH]c2ccccc12)C(=O)O [trp, tryptophan]",increased
4,"N[C@@H](Cc1ccccc1)C(=O)O [phe, phenylalanine]",decreased
5,"C[C@@H](O)[C@H](N)C(=O)O [thr, threonine]",decreased
6,"NC(CC(=O)c1ccccc1NC=O)C(=O)O (stereo not drawn) [NFK, N-formylkynurenine]",increased
7,"N[C@@H](CCC(=O)O)C(=O)O [glu, glutamate]",decreased

# Continued, values first:
row,"renal clearance, change",SMILES
1,decreased,"NC(Cc1ccc(O)c(-c2cc(CC(N)C(=O)O)ccc2O)c1)C(=O)O (stereo not drawn) [DT, dityrosine]"
2,decreased,"N[C@@H](CCCCN1C[C@@H](O)[C@@H](O)CC2NC(=NCCC[C@H](N)C(=O)O)N=C21)C(=O)O (stereo partly drawn) [GSP, glucosepane]"

# Same assay, conditions: in vivo
decrease in renal clearance (CL) [%],"renal clearance, change",SMILES
50,decreased,"N=C(NCCC[C@H](N)C(=O)O)NCC(=O)O [CMA, Nω-carboxymethylarginine]"
